From publication PMC6212544, “Identification and Characterization of Novel CFTR Potentiators” (Frontiers in Pharmacology, 2018)

What was measured:
G551D CFTR = molecular target: T1, G551D CFTR (Homo sapiens, UniProt P13569, G551D); conditions: ref Yeh et al. (2017); cited from earlier work
T1 construct: expressed in transfected cells; host or cells: HEK293, transient (jetPEI)

WT CFTR = WT CFTR (Homo sapiens, UniProt P13569); experiment: Patch clamp, inside-out patches of CHO cells expressing WT CFTR; assay type: cell-based; parameters: expressed in transfected cells; host or cells: CHO cells, transient, pcDNA plasmid; conditions: 3 μM GLPG1837, PKA and 2 mM ATP
Procedure: A more complete description of the patch-clamp methodology can be found in a recent publication ([Lin et al., 2016]). Briefly, CHO (Chinese Hamster Ovary) cells were transiently transfected with pcDNA plasmids containing various CFTR constructs and pEGFP-C3. After transfection, cells were trypsinized and plated onto 35 mm tissue culture dishes dispersed with sterilized glass chips. Electrophysiological experiments were performed 3–7 days following transfection.
Patch-clamp experiments were performed at room temperature with an EPC-9 patch clamp amplifier (HEKA Instruments, Holliston, MA, United States). Recording microelectrodes were made from borosilicate capillary glass with a two-stage pipette puller (Narishige, Tokyo, Japan). The pipette tip was polished with a home-made microforge before use. The pipette solution contained (in mM) 140 NMDG (N-methyl-d-glucamine)-Cl (Fisher Biotec), 2 MgCl2 (Fisher Biotec, Perth, Australia), 5 CaCl2 (Fisher Biotec), and 10 HEPES (Fisher Biotec), pH 7.4, with NMDG (see [Lin et al., 2016] for details). The pipette resistance when filled with the regular pipette solution was 3–5 MΩ. Once the tip of the pipette and the cell membrane established GΩ resistance, the electrode was quickly pulled away from the cell to form an inside-out patch, where the cytosolic side of the membrane was exposed to the perfusion solution. Cells were perfused with a bath solution having (in mM) 145 NaCl (Fisher Biotec), 5 KCl (Fisher Biotec), 2 MgCl2, 1 CaCl2, 5 glucose (Fisher Biotec), 5 HEPES, and 20 sucrose (Fisher Biotec), pH 7.4, with NaOH (Fisher Biotec). […]
Microscopic kinetic analysis was performed with a program provided by Dr. László Csanády (Semmelweis University, Budapest, Hungary) ([Csanády, 2000]). Experiments were performed 4-5 times and averages and SEM were calculated. […]

WT CFTR, sequence (P13569 whole entry): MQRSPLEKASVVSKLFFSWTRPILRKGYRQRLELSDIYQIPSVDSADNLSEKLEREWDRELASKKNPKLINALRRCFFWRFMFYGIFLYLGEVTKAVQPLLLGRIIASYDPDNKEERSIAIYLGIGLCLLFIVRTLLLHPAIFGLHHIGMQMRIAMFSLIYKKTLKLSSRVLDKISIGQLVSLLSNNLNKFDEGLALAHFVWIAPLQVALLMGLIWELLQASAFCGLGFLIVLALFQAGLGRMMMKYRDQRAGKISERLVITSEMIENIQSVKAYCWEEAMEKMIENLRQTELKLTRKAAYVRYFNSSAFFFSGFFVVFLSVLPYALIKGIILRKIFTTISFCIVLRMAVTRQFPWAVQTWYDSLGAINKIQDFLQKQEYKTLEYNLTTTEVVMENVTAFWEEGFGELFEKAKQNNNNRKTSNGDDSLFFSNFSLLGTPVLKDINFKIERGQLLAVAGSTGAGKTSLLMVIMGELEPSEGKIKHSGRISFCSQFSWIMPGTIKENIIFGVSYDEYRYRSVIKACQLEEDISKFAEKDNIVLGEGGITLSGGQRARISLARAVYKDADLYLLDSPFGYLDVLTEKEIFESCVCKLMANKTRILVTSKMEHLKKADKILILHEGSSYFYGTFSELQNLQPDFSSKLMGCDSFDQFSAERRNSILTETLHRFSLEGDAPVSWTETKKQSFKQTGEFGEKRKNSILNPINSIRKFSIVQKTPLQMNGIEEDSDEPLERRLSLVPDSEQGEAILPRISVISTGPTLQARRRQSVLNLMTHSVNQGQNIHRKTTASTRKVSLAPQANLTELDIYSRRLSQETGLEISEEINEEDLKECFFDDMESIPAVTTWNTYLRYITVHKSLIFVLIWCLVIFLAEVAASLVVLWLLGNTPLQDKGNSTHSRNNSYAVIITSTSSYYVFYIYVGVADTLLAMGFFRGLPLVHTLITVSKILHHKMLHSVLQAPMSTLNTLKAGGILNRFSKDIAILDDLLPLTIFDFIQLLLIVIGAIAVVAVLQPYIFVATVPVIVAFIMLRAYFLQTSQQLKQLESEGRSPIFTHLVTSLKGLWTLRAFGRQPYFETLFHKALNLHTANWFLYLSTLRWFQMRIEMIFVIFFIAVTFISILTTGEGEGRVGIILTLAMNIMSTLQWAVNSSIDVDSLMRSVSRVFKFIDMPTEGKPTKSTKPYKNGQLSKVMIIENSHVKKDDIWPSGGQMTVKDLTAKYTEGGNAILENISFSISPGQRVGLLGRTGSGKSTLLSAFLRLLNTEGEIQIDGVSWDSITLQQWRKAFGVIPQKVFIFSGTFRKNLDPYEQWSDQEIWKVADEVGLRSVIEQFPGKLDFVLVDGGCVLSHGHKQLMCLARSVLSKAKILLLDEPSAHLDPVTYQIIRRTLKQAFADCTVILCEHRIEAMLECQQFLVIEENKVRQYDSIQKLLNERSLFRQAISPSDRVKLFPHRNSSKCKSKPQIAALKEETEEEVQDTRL
T1 sequence (P13569 whole entry G551D): as the sequence (P13569 whole entry) above, with G551D counted along it

Closed time constant τc, WT CFTR (WT CFTR): 0.29 ± 0.03 s
Open time constant τo, WT CFTR (WT CFTR): 1.48 ± 0.41 s
Open probability Po, WT CFTR (WT CFTR; pre-potentiator Po 0.39 ± 0.04): 0.78 ± 0.04
SMILES: CC1(C)Cc2c(sc(NC(=O)c3ccn[nH]3)c2C(N)=O)C(C)(C)O1 [GLPG1837, N-(3-Carbamoyl-5,5,7,7-tetramethyl-5,7-dihydro-4H-thieno[2,3-c]pyran-2-yl)-lH-pyrazole-5-carboxamide]
Increase of macroscopic G551D CFTR current (G551D CFTR): 27.5 fold
